Measured values from PMC2394794 (Journal of Synchrotron Radiation, 2008).
Read-outs that look alike come from different tables or passages of the source.

Assays:
HCV NS3/4A protease [1] = target: T1, HCV NS3/4A protease (Hepatitis C virus genotype 1a, UniProt P27958); settings: experimental over predicted relative Ki*
HCV NS3/4A protease [2] = target: T1, HCV NS3/4A protease; assay: Inhibition of HCV NS3/4A protease by ketoamide inhibitors; type: biochemical; settings: P2 = DMCP versus P2 = Leu

T1 sequence (P27958 1658-1711): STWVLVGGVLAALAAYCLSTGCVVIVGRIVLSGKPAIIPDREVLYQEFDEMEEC
T1 sequence (P27958 1027-1208): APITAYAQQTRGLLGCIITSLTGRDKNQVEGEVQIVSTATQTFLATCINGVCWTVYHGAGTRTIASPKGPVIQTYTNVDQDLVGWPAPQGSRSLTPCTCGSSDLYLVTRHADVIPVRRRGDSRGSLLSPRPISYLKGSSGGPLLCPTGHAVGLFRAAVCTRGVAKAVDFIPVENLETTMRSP

With CC(C)(C)NC(=O)N[C@H](C(=O)N1C[C@H]2[C@@H]([C@H]1C(=O)NC(CC1CCC1)C(=O)C(N)=O)C2(C)C)C(C)(C)C (stereo partly drawn) [Compd 9, ^tBu–urea–t-Bug–DMCP–c-Bua–CONH2] the “Ki* ratio exp./SA” value (HCV NS3/4A protease [1]; P2 series) was 4.1, the “Ki* ratio exp./SA” value (HCV NS3/4A protease [1]; P3 series) was 9.0 and the “increase in potency relative to Leu” value (HCV NS3/4A protease [2]) was 70 fold.
